The source of these data is patent publication US6818226B2, “Dermal penetration enhancers and drug delivery systems involving same” (ACRUX DDS Pty. Ltd., priority 1996, dated 2004).

Like-named read-outs stand apart in the source and are kept apart here. Marks after values point to notes of the source that are not given here.

The format of series [1] is physicochemical. The source says: Japanese patent JP 61-268631 to Showa Denko KK discloses dermal penetration enhancers suitable for use with water-soluble drugs. The dermal penetration enhancers disclosed include 1-5 carbon fatty acid esters of para-aminobenzoic acid but their chemical structures are quite distinct from the compounds used in the present invention, and the physicochemical properties of the 1-5 carbon fatty acid esters of para-aminobenzoic acid are markedly different to those of the present invention. For example the octanol-water partition coefficients for all the 1-5 carbon fatty acid esters of para-aminobenzoic acid are at least 200 fold lower than those of the present invention. Also the preferred dermal penetration enhancer disclosed in JP 61-268631 is the 2 carbon fatty acid ester of para-aminobenzoic acid (or Benzocaine) which has an octanol-water partition coefficient which is more than 8000 fold lower than those of the present invention. Unlike those of the present invention, the preferred dermal penetration enhancer disclosed in JP 61-268631 has significant pharmacological properties in that it is a local anaesthetic, which has also been reported to cause irritant and allergic skin reactions. […]

Series [2] can be described thus: Flux of oestradiol, progesterone, norethisterone acetate, ibuprofen, flurbiprofen across shed snake skin, 5 microL/cm^2 (Example 11). The class given is in vitro ADME. Conditions: Children's python.
A short description of series [3]: Ibuprofen penetration across full-thickness hairless mouse skin in vitro (Example 5). Conditions: control, no enhancer; 2% w/v ibuprofen in 70% aqueous ethanol.
The conditions of series [4]: Children's python, 24 h, 2 % v/v.
A short description of series [5]: Hydroquinone penetration across full-thickness guinea pig skin in vitro from gel, Franz cells (Example 4). Conditions: both, guinea pig, 3 % v/v. The source says:
Adult guinea pigs of either sex (weight range 500 g-750 g) were used. The hair on the back flank and back was removed with the aid of depilatory wax (Arielle™) under halothane anaesthesia. Seven days later, after the stratum corneum had completely regenerated, the guinea pigs were killed and the skin removed and placed on a chilled slab. […] For in vivo experiments the guinea pigs were housed in individual cages and the topical hydroquinone formulations were applied to the hair-free areas. Each guinea pig received the test or control formulation on the corresponding contralateral site, thus allowing each animal to act as its own control.
Radiolabelled hydroquinone (C14, Amersham) was added to each of the topical formulations. At specified time intervals 200 microL of receptor solution was withdrawn with a micro-pipette and replaced with 200 microL of fresh normal saline. The 200 microL samples were added to 800 microL of water which in turn was added to 10 mL of scintillation cocktail consisting of Toluene™ 1L, PPO 5g, POPOP 0.1 g and Triton X™ 500 mL. The scintillation counting was performed on a Packard Tricarb 460C instrument. Disintegrations per minute were determined by an external standard procedure and calculated by the data system of the instrument.

For series [6], the system named is full-thickness guinea pig skin in vivo. The series can be described thus: Melanin content of guinea pig skin in vivo after topical hydroquinone solution (Example 4). How it is done:
Melanin content was measured by reflectance absorbance from the treated and untreated skin according to the methods outlined in the PhD thesis of Anderson, J. R., titled The Development of Techniques for Measuring the Bioavailability of Topical Depigmenting Agents (School of Pharmaceutics, Victorian College of Pharmacy Ltd., Parkville, Victoria, Australia, Dec., 1985).

A short description of series [7]: Flux of oestradiol, progesterone, norethisterone acetate, ibuprofen, flurbiprofen across shed snake skin, 5 microL/cm^2 (Example 11). As to conditions: Children's python, 8 % v/v. Format: in vitro ADME, Children's python. The source says: (§1) Dermatol., 94; 235-240, 1990.
(§2) Degassing was repeated three times.
In order to further illustrate the present invention and the advantages thereof, the following specific examples are given, it being understood that same are intended only as illustrative and in nowise limitative. In the examples, the effectiveness of the dermal penetration enhancers are illustrated by measuring the skin penetration of physiologically active agents. Also, the skin penetration of the dermal penetration enhancers of this invention were compared with that of other penetration enhancers as well as formulations of bio-affecting agents with common adjuvants. The comparisons made generally consisted of measuring the relative penetration through shed snake skin of the various formulations. In the examples, the in vitro skin penetration studies were performed using the same in vitro diffusion cell apparatus as previously mentioned.
The two penetration enhancers given as examples are octyl dimethyl PABA and Azone. Both penetration enhancers were again at a concentration of 8% v/v within the formulations and control was without a penetration enhancer. A concentration of 2% w/v oestradiol was used in the formulation and detection wavelength was 212 nm and the mobile phase consisted of acetonitrile:water (40%:60%).

Series [8] can be described thus: Diffusion of indomethacin (Indospray) across snake skin after pretreatment with Octyl dimethyl PABA (Example 2). The class given is in vitro ADME. Conditions: Children's python, 24 h. How it is done: as §1, §2
10 microL of increasing concentrations of Octyl dimethyl PABA in absolute ethanol were applied 30 mins prior to the application of the indomethacin formulation. The control experiment involved application of 10 microL of absolute ethanol alone 30 mins prior to the application of the indomethacin formulation. Samples were assayed according to the method described previously.

For series [9] the following is noted: hairless, mouse, 2 % v/v.
Series [10] is classed as in vitro ADME, Children's python. Conditions: Children's python, 24 h, 8 % v/v.
Excerpt: as §1, §2
The control formulation contained no penetration enhancer. The detection wavelength was 242 nm and the mobile phase consisted of acetonitrile:water (35%:65%).

The nature of series [11]: Diffusion of ketoprofen across snake skin, enhancer included in the formulation (Example 3). Conditions: control, no enhancer; 2% w/v ketoprofen in 70% aqueous ethanol; 24 h.
The nature of series [12]: Ketoprofen flux from transdermal patch across snake skin (Example 9). Format: in vitro ADME, Children's python. As to conditions: control transdermal patch without enhancer, over 24 h. How it is done: as §1, §2
The patches were prepared by dissolving 300 mg of ketoprofen, 400 mg of penetration enhancer, 300 mg of polyethylene glycol 400 and 800 mg of hydroxypropylcellulose in 20 mL of ethanol and stirring until viscous. This was then poured onto a clean glass plate and dried at 40 degrees Celsius for 1 h. The thickness of this film was approximately 1 mm. Circles of 0.8 cm^2 were then cut out of this matrix and stuck onto the middle of 2.0 cm^2 circles of OPSITE™ adhesive bandage. This patch was then stuck onto 2.0 cm^2 pieces of snake skin and placed in the diffusion cell. The ketoprofen content of each patch formulation was determined by HPLC in triplicate and found to be 6.99+/−0.30 mg/cm^2 and 6.76+/−0.24 mg/cm^2, for the control and octyl salicylate patches respectively (mean content+/−std error, […]).

Series [13] in a line: Diffusion of ketoprofen across shed snake skin after pretreatment with enhancer (Example 1). As to conditions: control, no enhancer: 70% aqueous ethanol alone for 2 hours before 2% ketoprofen; 24 h.
Series [14] in a line: Testosterone penetration across dermatomed neonate porcine skin in vitro (Example 6). As to conditions: control, no enhancer; 12% w/v testosterone in absolute ethanol. Format: in vitro ADME.
Excerpt: as §2

For series [15] the following is noted: in vivo, Bartek et al. 1972; cited from earlier work.
A short description of series [16]: Testosterone clearance after intravenous bolus in pigs (Example 13). The class given is in vivo, domestic weanling pig. Conditions: pig, plasma, bolus dose of intravenous testosterone.
The nature of series [17]: Testosterone flux across shed snake skin, finite dose 5 microL/cm^2 (Example 10). As to conditions: control, no enhancer, 12% w/v testosterone in absolute ethanol. The method, then:
as §1, §2
The volume of each formulation applied to the skin was 5 microL/cm^2. Each formulation contained 12% w/v testosterone in absolute ethanol. The dose was applied with a GC syringe.
Samples were assayed for testosterone by HPLC as shown before in Example 6.

In the case of `CCOC(=O)c1ccc(N)cc1` [Benzocaine, 2 carbon fatty acid ester of para-aminobenzoic acid], the “octanol-water partition coefficient, fold lower than those of the present invention” value in [1] is reported as “more than 8000 fold”.
For the compound `CC(C)Cc1ccc(C(C)C(=O)O)cc1` (centres unmarked) [Ibuprofen, ibuprofen], in [2] (20 %), the “Mean flux +/− std error of ibuprofen” value was 5.39 +/− 0.50 microg/cm^2 · h. Moreover, in series [3], the “median amount of ibuprofen penetrated after 12 hours” value amounted to 474 μg/cm^2 and the “median amount of ibuprofen penetrated after 24 hours” value was determined as 1819 μg/cm^2.
For the compound `CCCCC(CC)COC(=O)c1ccc(N(C)C)cc1` (centres unmarked) [Octyl dimethyl PABA, Octyl dimethyl-para-aminobenzoate], the Enhancement ratio in series [4] was determined as 3.5; in [7] (24 h), 2.4; in series [8] (1.6 % v/v), 1.2; in series [8] (3.2 % v/v), 1.4; in [8] (6.4 % v/v), 1.6; in series [10], 5.8. The “Enhancement ratio (enhancer/control)” value in series [5] is 2.9; in series [6] (melanin content, HQ 1% w/v with enhancer 2% v/v versus HQ 1% w/v control), 1.5. In series [2] (8 % v/v), the “Mean flux +/− std error of flurbiprofen” value is recorded as 2.91 +/− 0.30 microg/cm^2 · h. The “Mean flux +/− std error of ibuprofen” value in series [2] (8 % v/v) is reported as 13.16 +/− 1.21 microg/cm^2 · h. Also, the “Mean flux +/− std error of norethisterone acetate” value in series [2] (8 % v/v) is 1.85 +/− 0.07 microg/cm^2 · h. For the same compound, the “Mean flux +/− std error of progesterone” value in [2] (24 h, 8 % v/v) is 0.95 +/− 0.03 microg/cm^2 · h. Besides, the Melanin content in series [6] (HQ 1% w/v with enhancer 2% v/v, finite dose solution 5 microL/cm^2) is recorded as 38.2 ± 3.1 μg/cm^2. In addition, the “Mean flux +/− std error of oestradiol” value in series [7] is on record as 0.26 +/− 0.01 microg/cm^2 · h. The “Mean flux +/− std error of indomethacin” value in series [8] (1.6 % v/v) is on record as 1.43 +/− 0.14 microg.cm^2.h; in [8] (3.2 % v/v) it was 1.71 +/− 0.32 microg.cm^2.h; in series [8] (6.4 % v/v), 1.94 +/− 0.09 microg.cm^2.h. In addition, the “median amount of ibuprofen penetrated after 12 hours” value in [9] (12 h) is given as 1123* μg/cm^2. In addition, the “median amount of ibuprofen penetrated after 24 hours” value in series [9] (24 h) is reported as 2981* μg/cm^2. Moreover, in series [10], the “Mean flux +/− std error of hydrocortisone” value is recorded as 0.79 +/− 0.06 microg/cm^2.h.
Consider `CC(C(=O)O)c1cccc(C(=O)c2ccccc2)c1` (centres unmarked) [ketoprofen], for which the “Mean flux +/− std error of ketoprofen” value worked out at 0.78 ± 0.07 microg/cm^2.h in [11], 0.47 ± 0.04 microg/cm^2.h in [12] and 0.96 ± 0.18 microg/cm^2.h in series [13].
Turning to `C[C@]12CC[C@H]3[C@@H](CCC4=CC(=O)CC[C@@]43C)[C@@H]1CC[C@@H]2O` [testosterone], in series [14], the “mean amount of testosterone penetrated after 4 hours” value is on record as 4 ± 1 μg/cm^2 and the “mean amount of testosterone penetrated after 24 hours” value is recorded as 13 ± 2 μg/cm^2. The “permeability in human skin compared with pig skin, fold lower” value in series [15] is 2.2 fold. In series [16], this compound gave a clearance of 11.1 mL/min/kg. For the same compound, the “Mean flux +/− std error of testosterone” value in series [17] was 0.70 +/− 0.03 microg/cm^2.h.

As usually defined, the clearance is the volume of plasma or blood freed of the substance per unit of time. High values mean a high capacity for elimination, low ones a low capacity for elimination.
